Measurements as given in patent publication US20020006958A1, “Substituted aminosalicylic acid amides with fungicidal effect and intermediate products for production thereof” (priority 1997, published 2002).

Test: HPLC logP determination
Format: physicochemical
Conditions: stated in the preparation examples

Row | Compound | chromatographic logP
1 | O=CNc1cccc(C(=O)Nc2ccc(Oc3ncnc(Oc4ccccc4)c3F)cc2)c1O [Example 1, N-[4-(5-fluoro-6-phenoxy-pyrimidin-4-yloxy)-phenyl]-3-formyl-amino-2-hydroxy-benzamide] | 3.31
2 | Nc1ccc(Oc2cc(Cl)ncn2)cc1 [XI-1, 4-(4-aminophenoxy)-6-chloro-pyrimidine] | 0.65
3 | O=C(Nc1ccc(Oc2ncnc(Oc3ccccc3)c2F)cc1)c1cccc([N+](=O)[O-])c1OCc1ccccc1 [Example V-1, 2-benzyloxy-N-[4-(5-fluoro-6-phenoxy-pyrimidin-4-yloxy)-phenyl]-3-nitro-benzamide] | 4.56
4 | Nc1ccc(Oc2cc(Oc3ccccc3Cl)ncn2)cc1 [VII-a-1, 4-(4-aminophenoxy)-6-(2-chlorophenoxy)-pyrimidine] | 1.96
